Reference: ChEMBL document CHEMBL1201862, “PubChem BioAssay data set” (2004)
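Grown in 96-well plates, cells were treated for 48 hours with each compound at five concentrations. Insufficient inhibition: endpoint recorded as highest concentration tested. GI50 is the concentration that inhibits growth by half.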 Activity calls are given as the source filed them. Rule as the data show it: active = GI50 up to about 1.1 µM and inactive = higher.

What was measured:
Test in all cases: NCI anticancer screen, dose series, 48 h
DLD-1 = system: DLD-1
A498 = system: A498
SF-539 = system: SF-539
OVCAR-8 = system: OVCAR-8
SK-OV-3 = system: SK-OV-3
SF-268 = system: SF-268
SK-MEL-2 = system: SK-MEL-2
NCI-H522 = system: NCI-H522
SR = system: SR
UACC-257 = system: UACC-257
SNB-75 = system: SNB-75
CAKI-1 = system: CAKI-1
U-251 = system: U-251
MOLT-4 = system: MOLT-4
HOP-62 = system: HOP-62
NCI-H226 = system: NCI-H226
MCF7 = system: MCF7
MDA-MB-231 = system: MDA-MB-231
MDA-N = system: MDA-N
MDA-MB-435 = system: MDA-MB-435

Measured: GI50

CN1CC[C@]2(C)c3ccc(O)cc3CC3CCCC1C32C (some centres not stated)
inactive: DLD-1 > 100 µM | A498 > 100 µM | SF-539 > 100 µM | OVCAR-8 > 100 µM | SK-OV-3 > 100 µM | SF-268 > 100 µM | SK-MEL-2 > 100 µM | NCI-H522 > 100 µM | SR > 100 µM | UACC-257 > 100 µM | SNB-75 80.9 µM | CAKI-1 > 100 µM | U-251 > 100 µM | MOLT-4 > 100 µM | HOP-62 > 100 µM | NCI-H226 > 100 µM

C#CCOCn1cnc2c(Cl)ncnc21
inactive: DLD-1 > 100 µM | A498 > 100 µM | SF-539 > 100 µM | OVCAR-8 > 100 µM | SK-OV-3 > 100 µM | SF-268 > 100 µM | SK-MEL-2 > 100 µM | NCI-H522 86.1 µM | SR 50.9 µM | UACC-257 > 100 µM | SNB-75 > 100 µM | CAKI-1 > 100 µM | U-251 > 100 µM | MOLT-4 67.5 µM | HOP-62 > 100 µM | NCI-H226 > 100 µM

N#C/C(=C\c1ccc2[nH]ccc2c1)C(=O)NCCCCNC(=O)/C(C#N)=C/c1ccc2[nH]ccc2c1
inactive: MCF7 > 10 µM | DLD-1 > 100 µM | A498 > 31.6 µM | SF-539 > 31.6 µM | OVCAR-8 > 31.6 µM | SK-OV-3 > 31.6 µM | SF-268 > 31.6 µM | SK-MEL-2 > 31.6 µM | NCI-H522 > 31.6 µM | SR > 31.6 µM | UACC-257 > 31.6 µM | SNB-75 > 31.6 µM | MDA-MB-231 > 10 µM | CAKI-1 > 31.6 µM | MDA-N > 10 µM | U-251 > 31.6 µM | MOLT-4 > 31.6 µM | HOP-62 > 31.6 µM | MDA-MB-435 > 10 µM | NCI-H226 > 31.6 µM
